# Patent US5244795A, “Processes for preparing cholesterol lowering compounds” (Merck & Co., Inc., priority 1992, dated 1993)
# Assays:
# Bacillus subtilis = assay: FISP disc diffusion assay; type: cell-based; details: 250 μg/ml in CH2Cl2
# Procedure: (§1) The FISP assay employs disc diffusion susceptibility testing methods to generate a spectrum of activity against a panel of representative yeasts, filamentous fungi and bacteria.
# The bacteria employed in the assay are Streptomyces sp., Acholeplasma laidlawii and Bacillus subtilis.
# (§2) For carrying out the assay, seeded assay plates are prepared in the following manner according to the type of assay strain.
# (§3) Inocula for yeasts and bacterial strains are prepared from overnight broth cultures then diluted into potato dextrose agar to a final concentration of either 40 percent or 70 percent transmission at 660 nm.
# Seeded agar for Bacillus subtilis are prepared from a commercially available spore suspension which is diluted directly into molten agar (45° C.) to obtain a final concentration of 0.1 percent.
# (§4) The seeded agar media thus prepared are dispensed into petri dishes for assays (11 ml per dish).
# The samples to be tested for production of antifungal agent are applied to 6.2 mm filter paper discs (25 μl/disc) and air dried at 24° C. When the sample to be tested is crude broth, it may be centrifuged prior to application. […]
# Following incubation, the inhibition zones are measured and recorded. […]
# FISP data is reported as the diameter (in mm.) of the zone of inhibition of growth in agar diffusion assays. The zone is determined by measuring growth that differs from the background lawn. […]
# Candida albicans = assay: FISP disc diffusion assay; type: cell-based; set-up: key to zone quality qualifier: F: clear zone, fuzzy edges; S: slightly hazy zone (some growth observed throughout zone); H: hazy zone (considerable growth observed throughout zone); V: very hazy zone (zone of inhibition is barely discernable); R: zone displays a ring of resistant growth; no qualifier: clear zone throughout, sharp edges; details: 250 μg/ml in CH2Cl2
# Description: as §1
# (§5) The yeasts employed in the assay are Saccharomyces cerevisiae, Candida albicans, Candida tropicalis, Candida rugosa, Brettanomyces bruxellensis, Torulospora hansenii, Candida guilliermondi, Candida pseudotropicalis, Torulopsis glabrata, Cryptococcus albidus, Cryptococcus laurentii and Kluyveromyces fragilis.
# as §2, §3
# (§6) For three strains of Candida albicans and one strain of Saccharomyces cerevisiae, sterile saline is employed in place of potato dextrose broth.
# (§7) Assay plates for the yeasts and filamentous fungi are prepared by diluting the inoculum into appropriate molten agar medium, cooled to 45° C. to obtain a final concentration of 4 percent.
# as §4
# (§8) The samples to be tested for production of antifungal agent are applied to 6.2 mm filter paper discs (25 μl/disc) and air dried at 24° C. When the sample to be tested is crude broth, it may be centrifuged prior to application. The discs bearing the material to be tested are then applied employing sterile conditions to the seeded assay plates. The assay plates are then incubated at either 28° C. or 37° C. for 24 hours. In one of the assays for Bacillus subtilis, the sample is applied to a disc previously impregnated with 4M potassium chloride at 25 μl/disc and then air dried.
# (§9) Following incubation, the inhibition zones are measured and recorded. The measurements are made from the extreme edge where growth differs from the background zone. The zones are noted as to appearance as fuzzy edge and clear center, hazy throughout, slightly hazy, very hazy or ringed.
# (§10) FISP data is reported as the diameter (in mm.) of the zone of inhibition of growth in agar diffusion assays. The zone is determined by measuring growth that differs from the background lawn. A qualifier is also added to describe the zone quality as listed below: no qualifier: clear zone throughout, sharp edges
# Saccharomyces cerevisiae = assay: FISP disc diffusion assay; type: cell-based; set-up: key to zone quality qualifier: F: clear zone, fuzzy edges; S: slightly hazy zone (some growth observed throughout zone); H: hazy zone (considerable growth observed throughout zone); V: very hazy zone (zone of inhibition is barely discernable); R: zone displays a ring of resistant growth; no qualifier: clear zone throughout, sharp edges; details: 250 μg/ml in CH2Cl2
# Description: as §1, §5, §2, §3, §6, §7, §4, §8, §9, §10
# Light stability = type: physicochemical
smiles,measurement,setting,value
CC(/C=C/C=C(\C)C(O)C(C)C(=O)O[C@H]1C[C@H](C)C=C2C=C[C@@]3(C)O[C@@H](O)CC(=O)[C@]3(C)[C@H]21)=C\C=C\C(=O)O (stereo partly drawn) [Compound A],diameter of the zone of inhibition of growth,Bacillus subtilis; KCl (disc impregnated with 4M potassium chloride),0 mm
same,zone of inhibition at 250 µg/mL,"Bacillus subtilis; Bacillus subtilis, read-out: diameter of the zone of inhibition of growth",0 mm
same,zone quality qualifier,Candida albicans,S
same,zone quality qualifier,Candida albicans; YNB,V
same,zone quality qualifier,Candida albicans; YNB/GLU,H
same,zone quality qualifier,Candida albicans; YNB/NAG,H
same,zone of inhibition at 250 µg/mL,"Candida albicans; Candida albicans, read-out: diameter of the zone of inhibition of growth",0 mm
same,zone quality qualifier,Saccharomyces cerevisiae,H
same,zone quality qualifier,Saccharomyces cerevisiae; YNB,H
same,zone of inhibition at 250 µg/mL,"Saccharomyces cerevisiae; Saccharomyces cerevisiae, read-out: diameter of the zone of inhibition of growth",0 mm
same,stability,Light stability; isolated and worked with in the absence of light,stable when isolated and worked with in the absence of light
same,light sensitivity,Light stability; light,light sensitive
